Columns and labels:
Assay in all cases: Fractional growth, 72 h seliciclib
Format in all cases: cell-based, human
NCI-H727 = NCI-H727 (Lung), 15 μM seliciclib
Text: (§1) A total of 270 human cancer cell lines from diverse cancer histopathologic types were investigated.

PC-9 = PC-9 (Lung: NSCLC), 15 μM seliciclib
Text: as §1

SAS = SAS (Head & Neck), 15 μM seliciclib
Text: as §1

BxPC-3 = BxPC-3 (Pancreas), 15 μM seliciclib
Text: as §1

M-14 = M-14 (Skin), 15 μM seliciclib
Text: as §1

OVCAR-8 = OVCAR-8 (Ovary), 15 μM seliciclib
Text: as §1

AsPC-1 = AsPC-1 (Pancreas), 15 μM seliciclib
Text: as §1

HSC-3 = HSC-3 (Head & Neck), 15 μM seliciclib
Text: as §1

KYSE-410 = KYSE-410 (Esophagus), 15 μM seliciclib
Text: as §1

A-375 = A-375 (Skin), 15 μM seliciclib
Text: as §1

BHY = BHY (Head & Neck), 15 μM seliciclib
Text: as §1

SW756 = SW756 (Cervix), 15 μM seliciclib
Text: as §1

C-4 I = C-4 I (Cervix), 15 μM seliciclib
Text: as §1

BT-20 = BT-20 (Breast), 15 μM seliciclib
Text: as §1

Saos-2 = Saos-2 (Bone), 15 μM seliciclib
Text: as §1

CAL-33 = CAL-33 (Head & Neck), 15 μM seliciclib
Text: as §1

NCI-H1581 = NCI-H1581 (Lung: NSCLC), 15 μM seliciclib
Text: as §1

DK-MG = DK-MG (Brain), 15 μM seliciclib
Text: as §1

NCI-H1299 = NCI-H1299 (Lung: NSCLC), 15 μM seliciclib
Text: as §1

B-CPAP = B-CPAP (Thyroid), 15 μM seliciclib
Text: as §1

T24 = T24 (Bladder), 15 μM seliciclib
Text: as §1

SNU-449 = SNU-449 (Liver), 15 μM seliciclib
Text: as §1

MFM-223 = MFM-223 (Breast), 15 μM seliciclib
Text: as §1

TYK-nu = TYK-nu (Ovary), 15 μM seliciclib
Text: as §1

VM-CUB1 = VM-CUB1 (Bladder), 15 μM seliciclib
Text: as §1

A2058 = A2058 (Skin), 15 μM seliciclib
Text: as §1

KYSE-450 = KYSE-450 (Esophagus), 15 μM seliciclib
Text: as §1

NCI-H1915 = NCI-H1915 (Lung: NSCLC), 15 μM seliciclib
Text: as §1

PCI-4B = PCI-4B (Head & Neck), 15 μM seliciclib
Text: as §1

KP-4 = KP-4 (Pancreas), 15 μM seliciclib
Text: as §1

CHSA8926 = CHSA8926 (Bone), 15 μM seliciclib
Text: as §1

UO-31 = UO-31 (Kidney), 15 μM seliciclib
Text: as §1

NUGC-3 = NUGC-3 (Stomach), 15 μM seliciclib
Text: as §1

LU99C = LU99C (Lung: NSCLC), 15 μM seliciclib
Text: as §1

769-P = 769-P (Kidney), 15 μM seliciclib
Text: as §1

A-427 = A-427 (Lung: NSCLC), 15 μM seliciclib
Text: as §1

NCI-H1435 = NCI-H1435 (Lung: NSCLC), 15 μM seliciclib
Text: as §1

CC[C@H](CO)Nc1nc(NCc2ccccc2)c2ncn(C(C)C)c2n1 [seliciclib, roscovitine]
Fractional Growth (NCI-H727): 0.5866
Fractional Growth (PC-9): 0.7822
Fractional Growth (SAS): 0.3207
Fractional Growth (BxPC-3): 0.671
Fractional Growth (M-14): 0.3765
Fractional Growth (OVCAR-8): 0.5886
Fractional Growth (AsPC-1): 0.6879
Fractional Growth (HSC-3): 0.5223
Fractional Growth (KYSE-410): 0.4693
Fractional Growth (A-375): 0.1771
Fractional Growth (BHY): 0.5602
Fractional Growth (SW756): 0.6484
Fractional Growth (C-4 I): 0.5067
Fractional Growth (BT-20): 0.7016
Fractional Growth (Saos-2): 0.5733
Fractional Growth (CAL-33): 0.6834
Fractional Growth (NCI-H1581): 0.7659
Fractional Growth (DK-MG): 0.8572
Fractional Growth (NCI-H1299): 0.3352
Fractional Growth (B-CPAP): 0.5754
Fractional Growth (T24): 0.5262
Fractional Growth (SNU-449): 0.6309
Fractional Growth (MFM-223): 0.5683
Fractional Growth (TYK-nu): 0.3005
Fractional Growth (VM-CUB1): 0.3307
Fractional Growth (A2058): 0.6341
Fractional Growth (KYSE-450): 0.4067
Fractional Growth (NCI-H1915): 0.4337
Fractional Growth (PCI-4B): 0.4686
Fractional Growth (KP-4): 0.5607
Fractional Growth (CHSA8926): 0.674
Fractional Growth (UO-31): 0.3152
Fractional Growth (NUGC-3): 0.5557
Fractional Growth (LU99C): 0.3864
Fractional Growth (769-P): 0.602
Fractional Growth (A-427): 0.4252
Fractional Growth (NCI-H1435): 0.6379
